Biological target: p38 MAP kinase (Homo sapiens, UniProt Q16539)
Assay: p38 MAP Kinase Assay (33P incorporation into myelin basic protein, filter plate)
Assay type: biochemical
Settings: Table 1; MKK6-activated p38, MBP substrate, 50 minutes
Procedure: The activated p38 is then diluted 1:6 with assay buffer, and 20 μl mixed with 25 μl of MBP mix (300 μl 10×strength assay buffer, 300 μl of 10 mM DTT & 10 mM sodium orthovanadate, 1.7 ml H2O, 50 μCi γ^33P-ATP, 200 μl of myelin basic protein (MBP) (5 mg/ml)) and added to 96 well plates along with 5 μl of various dilutions of the test compound in DMSO (up to 10%). The reaction is allowed to proceed for 50 minutes before being stopped with an excess of ortho-phosphoric acid (30 μl at 2%).
γ^33P-ATP which remains unincorporated into the myelin basic protein is separated from phosphorylated MBP on a Millipore MAPH filter plate. The wells of the MAPH plate are wetted with 0.5% orthophosphoric acid, and then the results of the reaction are filtered with a Millipore vacuum filtration unit through the wells. Following filtration, the residue is washed twice with 200 μl of 0.5% orthophosphoric acid. Once the filters have dried, 25 μl of Microscint 20 scintillant is added, and then counted on a Packard Topcount for 30 seconds.

Chain of p38 MAP kinase (Q16539 whole entry): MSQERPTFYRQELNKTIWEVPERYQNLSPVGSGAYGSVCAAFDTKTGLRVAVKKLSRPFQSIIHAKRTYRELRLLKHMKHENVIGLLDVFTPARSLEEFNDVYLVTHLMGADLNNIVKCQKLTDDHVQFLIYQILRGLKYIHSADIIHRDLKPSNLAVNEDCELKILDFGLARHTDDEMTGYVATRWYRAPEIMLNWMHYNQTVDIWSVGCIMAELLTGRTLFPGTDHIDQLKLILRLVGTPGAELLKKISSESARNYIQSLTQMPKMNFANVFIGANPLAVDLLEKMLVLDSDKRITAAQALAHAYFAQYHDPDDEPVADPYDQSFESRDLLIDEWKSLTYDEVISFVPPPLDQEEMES

SMILES	IC50 [µM]
Nc1ncccc1OCc1ccccc1-c1ccccc1 [Compound 2]	< 10
COc1ccccc1COc1cccnc1N [Compound 6, 2-amino-3-(2-methoxybenzyloxy)pyridine]	< 1000
Nc1ncccc1OCc1cccc(Cl)c1 [Compound 9, 2-amino-3-(3-chlorobenzyloxy)pyridine]	< 1000
Clc1ncccc1OCc1ccccc1 [Compound 10, 3-Benzyloxy-2-chloropyridine]	< 2000
c1cncc(OCc2cccc3ccccc23)c1 [Compound 11, 3-(1-Naphthylmethyloxy)pyridine]	< 1000
Nc1ncccc1OCc1ccc(F)cc1F [Compound 13, 2-amino-3-(2,4-difluorobenzyloxy)pyridine]	< 1000
Nc1ncccc1OCc1ccc(F)c(F)c1 [Compound 14, 2-amino-3-(3,4-difluorobenzyloxy)pyridine]	< 1000
Nc1ncccc1OCc1ccc(Cl)cc1Cl [Compound 15, 2-amino-3-(2,4-dichlorobenzyloxy)pyridine]	< 1000
Nc1ncccc1OCc1ccc(Cl)c(F)c1 [Compound 16, 2-amino-3-(4-chloro-3-fluorobenzyloxy)pyridine]	< 200
Nc1ncccc1OCc1cc2c(cc1Cl)OCO2 [Compound 18, 2-amino-3-(2-chloro-4,5-(methylenedioxy)benzyloxy)pyridine]	< 1000
Cc1cc(C)cc(COc2cccnc2N)c1 [Compound 19]	< 200
Nc1ncccc1OCc1cccc(-c2ccccc2)c1 [Compound 20]	< 200
Nc1ncccc1OCc1c(F)cccc1Cl [Compound 22]	< 1000
Nc1ncccc1OCc1ccccc1C(F)(F)F [Compound 23]	< 100
Nc1ncccc1OCc1cccc(OC(F)(F)F)c1 [Compound 24]	< 10000
Nc1ncccc1OCc1ccccc1CS(=O)(=O)c1ccccc1 [Compound 25]	< 1000
Nc1ncccc1OCc1cccc(Cl)c1F [Compound 27]	< 1000
Cc1cccc(COc2cccnc2N)c1F [Compound 28]	< 1000
Cc1ccc2ccccc2c1COc1cccnc1N [Compound 30]	< 100
Nc1ncccc1OCc1ccc(F)cc1Cl [Compound 31]	< 1000
Nc1ncccc1OCc1c(F)cc(F)cc1F [Compound 32]	< 1000
Nc1ncccc1OCc1cccc(C(=O)NCc2cccc3ccccc23)c1 [Compound 33]	< 1000
Nc1ncccc1OCc1cccc(C(=O)NCC2CC2)c1 [Compound 34]	< 1000
Nc1ncccc1OCn1nnc2ccccc21 [Compound 37]	< 1000
Nc1ncccc1OCc1csc2ccccc12 [Compound 40]	< 1000
Nc1ccc(Cl)c(COc2cccnc2)c1 [Compound 41]	< 1000

SMILES	IC50 [µM]
CC(=O)Nc1ccc(Cl)c(COc2cccnc2)c1 [Compound 43]	< 1000
O=C(Nc1ccc(Cl)c(COc2cccnc2)c1)c1ccnc(N2CCOCC2)c1 [Compound 44, N-[4-Chloro-3-(pyridin-3-yloxymethyl)-phenyl]-2-morpholin-4-yl-isonicotinamide]	< 2
OCCNc1ccc(OCc2ccccc2)cn1 [Compound 45]	< 200
Nc1ccncc1OCc1cccc2ccccc12 [Compound 46]	< 1000
Nc1ncccc1OCc1cccc2ccoc12 [Compound 47]	< 1000
O=C(Nc1ccc(Cl)c(COc2cccnc2)c1)c1cccc(F)c1 [Compound 50, N-[4-Chloro-3-(pyridin-3-yloxymethyl)-phenyl]-3-fluoro-benzamide]	< 200
Clc1cccc(Cl)c1COc1ccc(NCc2ccccc2)nc1 [Compound 51]	< 200
O=C(Nc1ccc(Cl)c(COc2cccnc2)c1)c1ccccc1 [Compound 52, N-[4-Chloro-3-(pyridin-3-yloxymethyl)-phenyl]-benzamide]	< 20
O=C(Nc1ccc(Cl)c(COc2cccnc2)c1)c1ccncc1 [Compound 53, N-[4-Chloro-3-(pyridin-3-yloxymethyl)-phenyl]-isonicotinamide]	< 200
Clc1cccc(Cl)c1COc1ccc(N2CCOCC2)nc1 [Compound 54]	< 1000
O=S(=O)(Nc1ccc(Cl)c(COc2cccnc2)c1)c1ccccc1 [Compound 55, N-(4-Chloro-3-(pyridin-3-yloxymethyl)-phenyl]-benzenesulfonamide]	< 200
O=S(=O)(c1ccccc1)N(c1ccc(Cl)c(COc2cccnc2)c1)S(=O)(=O)c1ccccc1 [Compound 56, N-[4-Chloro-3-(pyridin-3-yloxymethyl)-phenyl]-bisbenzenesulfonamide]	< 1000
Nc1ncccc1OCc1cc(NC(=O)c2ccccc2)ccc1Cl [Compound 57, N-[3-(2-Amino-pyridin-3-yloxymethyl)-4-chloro-phenyl]-benzamide]	< 20
c1cc(COc2cccnc2)cc(COc2cccnc2)c1 [Compound 58]	< 1000
O=C(Nc1ccc(F)c(COc2cccnc2)c1)c1ccccc1 [Compound 59, N-[4-Fluoro-3-(pyridin-3-yloxymethyl)-phenyl]-benzamide]	< 200
O=C(Nc1ccc(F)c(COc2cccnc2)c1)c1cccc(F)c1 [Compound 60, 3-Fluoro-N-[4-fluoro-3-(pyridin-3-yloxymethyl)-phenyl]-benzamide]	< 200
O=C(Nc1ccccc1)Nc1ccc(Cl)c(COc2cccnc2)c1 [Compound 61, 1-[4-Chloro-3-(pyridin-3-yloxymethyl)-phenyl]-3-phenyl-urea]	< 20
O=C(Nc1ccc(F)c(COc2cccnc2)c1)c1cc(F)cc(N2CCOCC2)c1 [Compound 62, 3-Fluoro-N-[4-fluoro-3-(pyridin-3-yloxymethyl)-phenyl]-5-morpholin-4-yl-benzamide]	< 2
NC(=O)Nc1ccc(Cl)c(COc2cccnc2)c1 [Compound 63, [4-Chloro-3-(pyridin-3-yloxymethyl)-phenyl]-urea]	< 20
CC(C)(C)c1cc(NC(=O)Nc2ccc(Cl)c(COc3cccnc3)c2)n(-c2ccccc2)n1 [Compound 64, 1-(5-tert-Butyl-2-phenyl-2H-pyrazol-3-yl)-3-[4-chloro-3-(pyridin-3-yloxymethyl)-phenyl]-urea]	< 2
CC(C)(C)c1cccc(C(=O)Nc2ccc(Cl)c(COc3cccnc3)c2)c1 [Compound 65, 3-tert-Butyl-N-[4-chloro-3-(pyridin-3-yloxymethyl)-phenyl]-benzamide]	< 2
O=C(Nc1cccc(COc2cccnc2)c1)c1ccccc1 [Compound 66, N-[3-(Pyridin-3-yloxymethyl)-phenyl]-benzamide]	< 200
O=C(Nc1cccc(COc2cccnc2)c1)c1cc(F)cc(N2CCOCC2)c1 [Compound 67, 3-Fluoro-5-morpholin-4-yl-N-[3-(pyridin-3-yloxymethyl)-phenyl]-benzamide]	< 20
O=C1c2ccccc2C(=O)N1c1ccc(Cl)c(COc2cccnc2)c1 [Compound 68, 2-[4-Chloro-3-(pyridin-3-yloxymethyl)-phenyl]-isoindole-1,3-dione]	< 1000
O=C(Nc1ccc(Cl)c(COc2cccnc2)c1)c1cccc(C(F)(F)F)c1 [Compound 69, N-[4-Chloro-3-(pyridin-3-yloxymethyl)-phenyl]-3-trifluoromethyl-benzamide]	< 20

From patent publication US20060063782A1, “3-Hetero arylmethoxy ! pyridines and their analogues as p38 map kinase inhibitors” (priority 2002, published 2006)
